Measured values taken from patent US9745328B2, “Flap modulators” (JANSSEN PHARMACEUTICA NV, priority 2013, dated 2017).
Structures can show the parent of a compound that is named as a salt. Where two headings read alike, the source gives them in different places.

Key:
human FLAP = human FLAP (Homo sapiens (Human), UniProt P20292); assay: FLAP binding assay (HTRF format)
Summary of the method: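 Averaged over two plates (duplicate wells per plate); output given as HTRF ratio.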

[1] = system: leukotriene pathway in human whole blood (LTB4); assay: Human whole blood assay (LTB4 levels after calcium ionophore A23187 stimulation); format: cell-based; details: Homo sapiens, read-out: Human Whole Blood LTB4 IC50 1:1
Protocol: The ability of the compounds of the present invention to treat a FLAP-mediated disease and/or disorder, or associated symptoms or complications thereof, was determined using the following procedures. Binding assay data represent the average value obtained from two different assay plates, with samples run in duplicate on each plate. Human whole blood assay data represent a single replicate on an assay plate using whole blood from at least one healthy donor.
An in vitro cellular assay was performed using human whole blood collected in heparin-containing tubes, which was used to test the ability of compounds to modulate the leukotriene pathway in human whole blood. The blood was diluted 1:1 in RPMI medium, pre-incubated for 15 min at 37° Celsius with test compounds at various concentrations, and then stimulated with calcium ionophore, A23187 (7 μg/mL), for 30 min at 37° Celsius. The samples were then centrifuged and plasma was removed. The plasma was diluted in assay buffer and LTB4 levels were measured using a commercial kit (Enzo Life Sciences). The concentration of each compound that was required for half-maximal inhibition (modulation) of recombinant enzyme activity (IC50) was calculated by a 4-parameter equation using the program GraphPad Prism (GraphPad software).

[2] = human FLAP wild type, Table 6 (additional runs)
[3] = human whole blood diluted 1:1, A23187 stimulation, Table 6 (additional runs)
[4] = Table 6 (additional runs), human whole blood diluted 1:1, A23187 stimulation
[5] = Table 6 (additional runs), human FLAP wild type
[6] = human whole blood diluted 1:1 in RPMI, A23187 stimulation, LTB4

Sequence of human FLAP (P20292 whole entry): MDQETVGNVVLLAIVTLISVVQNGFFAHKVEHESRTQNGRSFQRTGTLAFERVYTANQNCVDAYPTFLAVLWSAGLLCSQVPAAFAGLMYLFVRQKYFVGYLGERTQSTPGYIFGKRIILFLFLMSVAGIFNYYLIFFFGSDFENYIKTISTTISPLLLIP

SMILES	Ki (human FLAP; [2])	IC50 [1, 3]	other results
Nc1cnc(-c2ccc(-c3ccccc3Oc3cc(N)ncn3)cc2F)cn1 [Example 535, 6-{[4′-(5-Aminopyrazin-2′yl)-3′-fluorobiphenyl-2-yl]oxy}pyrimidin-4′-amine]	1.5 nM	15.5 nM	
C[C@H](O)CNS(=O)(=O)c1ccccc1-c1ccc(-c2cnc(N)nc2)c(F)c1 [Example 279, 4′-(2-Aminopyrimidin-5-yl)-3′-fluoro-N-[(2S)-2-hydroxypropyl]biphenyl-2-sulfonamide trifluoroacetic acid salt]			IC50 [1, 4]: 118 nM
Nc1cnc(-c2ccc(-c3ccccc3S(=O)(=O)C3CCCC3)cc2F)cn1 [Example 195, 5-[2′-(Cyclopentylsulfonyl)-3-fluorobiphenyl-4-yl]pyrazin-2-amine]			Ki (human FLAP; [5]): 2.3 nM; IC50 [1, 4]: 69 nM
CCNS(=O)(=O)c1cc(C(F)(F)F)ccc1-c1cnc(-c2cnc(N)nc2)c(F)c1 [Example 674, 2-[6-(2-Aminopyrimidin-5-yl)-5-fluoropyridin-3-yl]-N-ethyl-5-(trifluoromethyl)benzenesulfonamide]	3.6 nM	13.3 nM	
Nc1cnc(-c2ccc(-c3ccccc3O)cc2F)cn1 [Example 476, 4′-(5-aminopyrazin-2-yl)-5′-fluorobiphenyl-2-ol]	24.1 nM	350 nM	
N#Cc1ncc(-c2ccccc2-c2ccc(-c3cnc(N)cn3)c(F)c2)cn1 [Example 849, 5-[4′-(5-Aminopyrazin-2-yl)-3′-fluorobiphenyl-2-yl]pyrimidine-2-carbonitrile]	38.3 nM	3900 nM	
Nc1cnc(-c2ccc(-c3ccccc3S(=O)(=O)N3CCC[C@@H]3CO)cc2F)cn1 [Example 91, (R)-(1-((4′-(5-aminopyrazin-2-yl)-3′-fluoro-[1,1′-biphenyl]-2-yl)sulfonyl)pyrrolidin-2-yl)methanol]			Ki (human FLAP; [5]): 4.7 nM; IC50 [1, 4]: 38.3 nM
CCCS(=O)(=O)Nc1ccccc1-c1ccc(-c2cnc(N)cn2)c(F)c1 [Example 36, N-[4′-(5-Aminopyrazin-2-yl)-3′-fluorobiphenyl-2-yl]propane-1-sulfonamide]			Ki (human FLAP; [5]): 8.1 nM; IC50 [1, 4]: 137 nM
Nc1ccnc(Oc2ccccc2-c2ccc(-c3cnc(N)nc3)c(F)c2)n1 [Example 529]		79.6 nM	
C[C@H](NC(=O)c1cc(C(F)(F)F)ccc1-c1ccc(-c2cnc(N)nc2)c(F)c1)C(F)(F)F [Example 788, 2-[4-(2-Aminopyrimidin-5-yl)-3-fluoro-phenyl]-5-(trifuoromethyl)-N-[(1S)-2,2,2-trifluoro-1-methyl-ethyl]enzamide]		1800 nM	
Nc1cnc(-c2ccc(-c3ccccc3S(=O)(=O)N3CC[C@@H](N)C3)cc2F)cn1 [Example 92, (R)-5-(2′-((3-aminopyrrolidin-1-yl)sulfonyl)-3-fluoro-[1,1′-biphenyl]-4-yl)pyrazin-2-amine]			IC50 [1, 4]: 309 nM
CC(C)(C)C(=O)Nc1ncccc1-c1ccc(-c2cnc3[nH]ccc3c2)c(F)c1 [Example 802, N-{3-[3-Fluoro-4-(1H-pyrrolo[2,3-b]pyridin-5-yl)phenyl]pyridin-2-yl}-2,2-dimethylpropanamide]		> 1000 nM	
CC(C)S(=O)(=O)c1ncccc1-c1ccc(-c2cnc(N)cn2)c(F)c1 [Example 395, 5-(2-Fluoro-4-{2-[(1-methylethyl)sulfonyl]pyridin-3-yl}phenyl)pyrazin-2-amine]		26.9 nM	
C[C@@H](CO)NS(=O)(=O)c1ccccc1-c1ccc(-c2cnc(N)cn2)c(F)c1 [Example 25, (R)-4′-(5-Aminopyrazin-2-yl)-3′-fluoro-N-[(1R)-2-hydroxy-1-methylethyl]piphenyl-2-sulfonamicie]			IC50 [1, 4]: 26.3 nM
Nc1cnc(-c2ccc(-c3ccccc3C(=O)N3CCS(=O)(=O)CC3)cc2F)cn1 [Example 509, 5-{2′-[(1,1-Dioxidathiomorpholin-4-yl)carbonyl]-3-fluorobiphenyl-4-yl}pyrazin-2-amine]		160 nM	
C[C@@H](CO)NS(=O)(=O)c1ccccc1-c1ccc(-c2ccc(N)nc2)c(F)c1 [Example 347, (S)-4′-(6-aminopyridin-3-yl)-3′-fluoro-N-(1-hydroxypropan-2-yl)-[1,1′-biphenyl]-2-sulfonamide]			IC50 [1, 4]: 161 nM; IC50 [1, 6]: 161 nM
Nc1cnc(-c2ccc(-c3ccccc3S(=O)(=O)N3CCc4[nH]ncc4C3)cc2F)cn1 [Example 128, 5-[3-Fluoro-2′-(1,4,6,7-tetrahydro-5H-pyrazolo[4,3-c]pyridin-5-ylsulfonyl)biphenyl-4-yl]pyrazin-2-amine]			Ki (human FLAP; [5]): 0.8 nM
N#Cc1ccccc1-c1ccc(-c2cnc(N)cn2)c(F)c1 [Example 701, 4′-(5-Aminopyrazin-2-yl)-3′-fluorobiphenyl-2-carbonitrile]	132 nM		
Nc1cnc(-c2ccc(-c3ccccc3S(=O)(=O)NCC3(O)CNC3)cc2F)cn1 [Example 664]		> 1000 nM	IC50 [1, 6]: > 1000 nM
Nc1cnc(-c2ccc(-c3ccccc3N)cc2F)cn1 [Example 178, 5-(2′-Amino-3-fluorobiphenyl-4-yl)pyrazin-2-amine]			Ki (human FLAP; [5]): ~1320 nM
Nc1cnc(-c2ccc(-c3ccccc3S(=O)(=O)N3c4ccccc4C[C@H]3CO)cc2F)cn1 [Example 135, (S)-(1-{[4′-(5-Aminopyrazin-2-yl)-3′-fluorobiphenyl-2-yl]sulfonyl}-2,3-dihydro-1H-indol-2-yl)methanol]			Ki (human FLAP; [5]): 0.4 nM; Ki (human FLAP; human FLAP wild type, a calculated value of 0.000 indicates Ki less than 1 nM): < 1 nM
CN1CCCC[C@@H](NS(=O)(=O)c2ccccc2-c2ccc(-c3cnc(N)cn3)c(F)c2)C1=O [Example 29, (S)-4′-(5-Aminopyrazin-2-yl)-3′-fluoro-N-[(3S)-1-methyl-2-oxoazepan-3-yl]biphenyl-2-sulfonamide]			Ki (human FLAP; [5]): 63.2 nM

More lines, main results first:

Ki (human FLAP; [2])	IC50 [1, 3]	SMILES	other results
51.1 nM	359 nM	Nc1cnc(-c2ccc(-c3ccccc3-c3cnn(CCO)c3)cc2F)cn1 [Example 874]	
76 nM	128 nM	C[C@H](CO)NS(=O)(=O)c1ccccc1-c1cnc(-c2cnc(N)nc2)c(F)c1 [Example 881, 2-[6-(2-Aminopyrimidin-5-yl)-5-fluoropyridin-a-yl]-N-[(1R)-2-hydroxy-1-methylethyl]benzenesulfonamide]	
239 nM	706 nM	Nc1cnc(-c2ccc(-c3ccccc3OCC3CCS(=O)(=O)CC3)cc2F)cn1 [Example 884, 5-{2′-[(1,1-Dioxidotetrahydro-2H-thiopyran-4-yl)methoxy]-3-fluorobiphenyl-4-yl}pyrazin-2-amine]	
30.3 nM	603 nM	Nc1cnc(-c2ccc(-c3cccnc3-c3ccccc3)cc2F)cn1 [Example 893, 5-[2-Fluoro-4-(2-phenylpyridin-3-yl)phenyl]pyrazin-2-amine]	
253 nM	117 nM	CS(=O)(=O)N1CCC(S(=O)(=O)c2ncccc2-c2ccc(-c3cnc(N)nc3)c(F)c2)CC1 [Example 909, 5-(2-Fluoro-4-(2-{[1-(methylsulfonyl)piperidin-4-yl]sulfonyl}pyridin-3-yl)phenyl]pyrimidin-2-amine]	
26.6 nM	43.7 nM	CS(=O)(=O)N1CCC(S(=O)(=O)c2ncccc2-c2ccc(-c3cnc(N)cn3)c(F)c2)CC1 [Example 908, 5-[2-Fluoro-4-(2-{[1-(methylsulfonyl)piperidin-4-yl]sulfonyl}pyridin-3-yl)phenyl]pyrazin-2-amine]	
96.2 nM	192 nM	Nc1ccc(-c2ccccc2-c2ccc(-c3cnc(N)nc3)c(F)c2)cn1 [Example 865, 5-[2′-(6-Aminopyridin-3-yl)-3-fluorobiphenyl-4-yl]pyrimidin-2-amine]	
0.5 nM	8.8 nM	Nc1cnc(-c2ccc(-c3ccc(C(F)(F)F)nc3S(=O)(=O)C3CCS(=O)(=O)CC3)cc2F)cn1 [Example 912, 5-(4-{2-[(1,1-Dioxidotetrahydro-2H-thiopyran-4-yl)sulfonyl]-6-(trifluoromethyl)pyridin-3-yl}-2-fluorophenyl)pyrazin-2-amine]	
13.2 nM	222 nM	Nc1ncc(-c2ccc(-c3cccnc3Oc3ccccc3)cc2F)cn1 [Example 895, 5-[2-Fluoro-4-(2-phenoxypyridin-3-yl)phenyl]pyrimidin-2-amine]	
0.7 nM	367 nM	Nc1cnc(-c2ccc(-c3ccccc3Oc3ccc(C(=O)O)cc3)cc2F)cn1 [Example 888, 4-{[4′-(5-Aminopyrazin-2-yl)-3′-fluorobiphenyl-2-yl]oxy}benzoic acid]	
79.7 nM	928 nM	Nc1ncc(-c2ccc(-c3cccnc3S(=O)(=O)c3ccccc3)cc2F)cn1 [Example 898, 5-{2-Fluoro-4-[2-(phenylsulfonyl)pyridin-3-yl]phenyl}pyrimidin-2-amine]	
0.3 nM	2 nM	Nc1cnc(-c2ccc(-c3ccc(C(F)(F)F)nc3S(=O)(=O)C3CCOCC3)cc2F)cn1 [Example 906, 5-{2-Fluoro-4-[2-(tetrahydro-2H-pyran-4-ylsulfonyl)-6-(trifluoromethyl)pyridin-3-yl]phenyl}pyrazin-2-amine]	
	140 nM	Nc1cnc(-c2ccc(-c3ccccc3-c3ccc(N)nn3)cc2F)cn1 [Example 863]	
